Reference: US7179840B2, “Furancarboxamides” (Bayer CropScience AG, priority 2002, dated 2007)

Legend:
[1] = logP determination by HPLC (reversed-phase C18), acidic range; assay type: physicochemical; conditions: pH 2.3, C18, 43° C., 0.1% aqueous phosphoric acid/acetonitrile
Description: The logP values given in the Preparation Examples were determined in accordance with EEC Directive 79/831 Annex V.A8 by HPLC (High Performance Liquid Chromatography) using a reversed-phase column (C 18). Temperature: 43° C.
Mobile phases for the determination in the acidic range: 0.1% aqueous phosphoric acid, acetonitrile; linear gradient from 10% acetonitrile to 90% acetonitrile.
Calibration was carried out using unbranched alkan-2-ones (having 3 to 16 carbon atoms) with known logP values (determination of the logP values by the retention times using linear interpolation between two successive alkanones).

Venturia inaequalis = assay: Venturia Test (Apple)/Protective; assay type: in vivo; conditions: 240 h, protective, application rate 100 g/ha, evaluation 10 days after inoculation, read-out: Efficacy in %
Description: Venturia Test (Apple)/Protective
(§1) To produce a suitable preparation of active compound, 1 part by weight of active compound is mixed with the stated amounts of solvent and emulsifier, and the concentrate is diluted with water to the desired concentration.
To test for protective activity, young plants are sprayed with the preparation of active compound at the stated application rate. After the spray coating has dried on, the plants are inoculated with an aqueous conidia suspension of the apple scab pathogen Venturia inaequalis and then remained in an incubation cabin at about 20° C. and 100% relative atmospheric humidity for 1 day.
The plants are then placed in a greenhouse at about 21° C. and a relative atmospheric humidity of about 90%.
(§2) Evaluation is carried out 10 days after the inoculation. 0% means an efficacy which corresponds to that of the control, whereas efficacy of 100% means that no infection is observed.

Alternaria solani = assay: Alternaria Test (Tomato)/Protective; assay type: in vivo; conditions: 48 h, protective, application rate 100 g/ha, evaluation 2 days after inoculation, read-out: Efficacy in %
Description: Alternaria Test (Tomato)/Protective
as §1
To test for protective activity, young tomato plants are sprayed with the preparation of active compound at the stated application rate. 1 day after the treatment, the plants are inoculated with an aqueous spore suspension of Alternaria solani. The plants are then placed in an incubation cabin at about 20° C. and 100% relative atmospheric humidity.
Evaluation is carried out 2 days after the inoculation. 0% means an efficacy which corresponds to that of the control, whereas efficacy of 100% means that no infection is observed.

Sphaerotheca fuliginea = assay: Sphaerotheca Test (Cucumber)/Protective; assay type: in vivo; conditions: protective, application rate 750 g/ha, evaluation 7 days after inoculation
Description: Sphaerotheca Test (Cucumber)/Protective
as §1
To test for protective activity, young cucumber plants are sprayed with the preparation of active compound at the stated application rate. 1 day after the treatment, the plants are inoculated with a spore suspension of Sphaerotheca fuliginea. The plants are then placed in a greenhouse at 70% relative atmospheric humidity and temperature of 23° C.
(§3) Evaluation is carried out 7 days after the inoculation. 0% means an efficacy which corresponds to that of the control, whereas efficacy of 100% means that no infection is observed.

Podosphaera leucotricha = assay: Podosphaera Test (Apple)/Protective; assay type: in vivo; conditions: 240 h, protective, application rate 100 g/ha, evaluation 10 days after inoculation, read-out: Efficacy in %
Description: Podosphaera Test (Apple)/Protective
as §1
To test for protective activity, young plants are sprayed with the preparation of active compound at the stated application rate. After the spray coating has dried on, the plants are inoculated with an aqueous spore suspension of the apple mildew pathogen Podosphaera leucotricha. The plants are then placed in a greenhouse at about 23° C. and a relative atmospheric humidity of about 70%.
as §2

Pyrenophora teres = Pyrenophora teres Test (Barley)/Protective; assay type: in vivo; conditions: protective, application rate 500 g/ha, evaluation 7 days after inoculation
Description: Pyrenophora teres Test (Barley)/Protective
as §1
To test for protective activity, young plants are sprayed with the preparation of active compound at the stated application rate. After the spray coating has dried on, the plants are sprayed with a conidia suspension of Pyrenophora teres. The plants remain in an incubation cabin at 20° C. and 100% relative atmospheric humidity for 48 h. The plants are then placed in a greenhouse at a temperature of about 20° C. and a relative atmospheric humidity of about 80%.
as §3

| Structure (SMILES) | chromatographic logP ([1]; reversed-phase C18 HPLC column) | chromatographic logP [1] | pest or weed control at 100 g/ha (Venturia inaequalis) [%] | pest or weed control at 100 g/ha (Alternaria solani) [%] | Efficacy in % (Sphaerotheca fuliginea) [%] | pest or weed control at 100 g/ha (Podosphaera leucotricha) [%] | Efficacy in % (Pyrenophora teres) [%] |
| --- | --- | --- | --- | --- | --- | --- | --- |
| Cc1occc1C(=O)Nc1ccccc1-c1ccc(Cl)cc1F [Example 1, N-(4′-chloro-2′-fluoro-1,1′-biphenyl-2-yl)-2-methyl-3-furamide] | 3.38 | – | – | – | – | – | – |
| Cc1occc1C(=O)Nc1ccccc1-c1ccc(Br)cc1 [Example 2] | – | 3.71 | 100 | 100 | 90 | – | – |
| Cc1occc1C(=O)Nc1ccccc1-c1ccc(C(F)(F)F)cc1 [Example 3] | – | 3.53 | 100 | 100 | 100 | 93 | – |
| Cc1occc1C(=O)Nc1ccccc1-c1cccc(Cl)c1 [Example 4] | – | 3.58 | 100 | 98 | 95 | 100 | – |
| Cc1occc1C(=O)Nc1ccccc1-c1ccc(OC(F)(F)F)cc1 [Example 5] | – | 3.91 | 100 | 92 | – | 93 | – |
| CSc1ccc(-c2ccccc2NC(=O)c2ccoc2C)cc1 [Example 6] | – | 3.63 | 100 | 95 | – | 92 | – |
| Cc1occc1C(=O)Nc1ccccc1-c1ccc(F)c(F)c1 [Example 8] | – | 3.22 | 100 | 82 | – | 85 | – |
| Cc1occc1C(=O)Nc1ccccc1-c1ccc(Cl)c(F)c1 [Example 9] | – | 3.43 | 100 | 100 | – | 97 | – |
| Cc1occc1C(=O)Nc1ccccc1-c1ccc(F)c(Cl)c1 [Example 10] | – | 3.46 | 100 | 95 | – | 100 | – |
| Cc1occc1C(=O)Nc1ccccc1-c1ccc(Cl)c(Cl)c1 [Example 15] | – | 3.73 | 100 | 96 | – | 100 | 90 |
| Cc1occc1C(=O)Nc1ccccc1-c1cc(Cl)cc(Cl)c1 [Example 16] | – | 3.9 | – | – | 90 | – | – |
